Drawing on PMC4820889 (Journal of Biomedical Research, 2015), this text covers IC50 for one compound.

By IC50 is commonly meant the concentration needed to halve the response being measured. The low end stands for greater potency in that assay, the high end for weaker potency in that assay.

The assay addresses ABCC1 (MRP1) (Homo sapiens, UniProt P33527).

Chain of ABCC1 (MRP1) (P33527 whole entry): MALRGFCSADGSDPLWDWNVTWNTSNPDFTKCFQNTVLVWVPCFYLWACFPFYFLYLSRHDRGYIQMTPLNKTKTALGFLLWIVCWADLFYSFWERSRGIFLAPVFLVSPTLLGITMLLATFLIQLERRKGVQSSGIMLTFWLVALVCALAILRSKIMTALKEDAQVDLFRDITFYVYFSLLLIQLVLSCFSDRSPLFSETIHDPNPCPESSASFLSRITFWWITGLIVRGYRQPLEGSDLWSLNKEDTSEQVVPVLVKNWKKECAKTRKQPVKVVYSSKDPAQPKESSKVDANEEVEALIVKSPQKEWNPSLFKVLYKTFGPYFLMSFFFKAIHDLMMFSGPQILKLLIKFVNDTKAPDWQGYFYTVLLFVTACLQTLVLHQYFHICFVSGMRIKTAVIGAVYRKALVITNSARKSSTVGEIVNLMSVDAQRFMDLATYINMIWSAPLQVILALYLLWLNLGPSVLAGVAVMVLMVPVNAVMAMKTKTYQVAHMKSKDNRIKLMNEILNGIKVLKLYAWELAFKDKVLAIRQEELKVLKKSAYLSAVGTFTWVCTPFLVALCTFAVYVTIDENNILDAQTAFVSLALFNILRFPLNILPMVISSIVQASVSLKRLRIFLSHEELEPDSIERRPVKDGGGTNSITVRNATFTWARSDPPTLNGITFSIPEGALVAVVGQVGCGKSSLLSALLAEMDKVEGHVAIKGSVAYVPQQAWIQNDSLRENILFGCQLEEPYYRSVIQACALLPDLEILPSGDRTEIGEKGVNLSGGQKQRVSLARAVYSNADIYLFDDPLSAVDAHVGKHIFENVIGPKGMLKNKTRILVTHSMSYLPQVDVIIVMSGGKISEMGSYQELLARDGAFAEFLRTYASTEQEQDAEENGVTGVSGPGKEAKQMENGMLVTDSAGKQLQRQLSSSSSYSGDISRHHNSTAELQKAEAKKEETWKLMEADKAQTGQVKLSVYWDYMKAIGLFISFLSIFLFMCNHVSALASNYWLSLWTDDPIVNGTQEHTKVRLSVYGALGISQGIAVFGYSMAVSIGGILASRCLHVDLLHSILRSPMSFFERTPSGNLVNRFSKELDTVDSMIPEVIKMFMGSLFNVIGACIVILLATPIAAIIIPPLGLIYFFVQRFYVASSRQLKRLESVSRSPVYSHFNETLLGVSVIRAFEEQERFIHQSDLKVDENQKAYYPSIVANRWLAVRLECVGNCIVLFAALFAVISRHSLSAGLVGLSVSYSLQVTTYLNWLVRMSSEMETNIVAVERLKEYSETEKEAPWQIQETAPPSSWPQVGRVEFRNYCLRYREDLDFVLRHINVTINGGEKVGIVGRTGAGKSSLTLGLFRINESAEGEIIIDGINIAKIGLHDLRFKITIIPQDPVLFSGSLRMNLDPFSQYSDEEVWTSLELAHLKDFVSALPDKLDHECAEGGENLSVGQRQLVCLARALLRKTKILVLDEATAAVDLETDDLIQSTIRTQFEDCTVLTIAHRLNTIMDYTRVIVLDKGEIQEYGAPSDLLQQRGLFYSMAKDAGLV

`CSc1ccc(/C=C2/C(C)=C(CC(=O)O)c3cc(F)ccc32)cc1` [SS, sulindac sulfide] yielded a half-inhibitory concentration (IC50) of 5.6 µM. This lies in the single-digit micromolar range.
